From PubChem BioAssay (NCI)
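Grown in 96-well plates, cells were treated for 48 hours with each compound at five concentrations. Insufficient inhibition: endpoint recorded as highest concentration tested. TGI denotes the concentration required for complete inhibition of growth.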

Experiments:
Test in all cases: NCI tumour cell line growth inhibition, 48 h
MCF7 breast = tested on: MCF7 breast
NCI-H226 lung = tested on: NCI-H226 lung
NCI-H522 lung = tested on: NCI-H522 lung
UO-31 renal = tested on: UO-31 renal
A498 renal = tested on: A498 renal
K-562 leukemia = tested on: K-562 leukemia
RPMI-8226 leukemia = tested on: RPMI-8226 leukemia
SNB-19 CNS = tested on: SNB-19 CNS
COLO 205 colon = tested on: COLO 205 colon
M14 melanoma = tested on: M14 melanoma
MDA-MB-231 breast = tested on: MDA-MB-231 breast

Structure (SMILES)	TGI (MCF7 breast) [µM]	TGI (NCI-H226 lung) [µM]	TGI (NCI-H522 lung) [µM]	TGI (UO-31 renal) [µM]	TGI (A498 renal) [µM]	TGI (K-562 leukemia) [µM]	TGI (RPMI-8226 leukemia) [µM]	TGI (SNB-19 CNS) [µM]	TGI (COLO 205 colon) [µM]	TGI (M14 melanoma) [µM]	TGI (MDA-MB-231 breast) [µM]
CCCCCCc1cn([C@H]2C[C@H](O)[C@@H](CO)O2)c(=O)[nH]c1=O	> 100	> 100	> 100	> 100	> 100	> 100	> 100	> 100			
O=C1OC(c2ccccc2)=N/C1=C/N1CCCC1C(=O)O (stereo not drawn)		> 100	> 100	> 100	> 100	> 100	> 100	> 100	> 100	> 100	
C=C1C(=O)O[C@H]2C/C(C=O)=C\[C@H]3O[C@H]3/C(COC(=O)C(C)C)=C/CC12 (stereo partly drawn)	50	51.1	10.5	18		10.4	7.61	35.4	5.91		17.3
O=C(NCCCCNCCCNC(=O)OCc1ccccc1)OCc1ccccc1	71.2	> 100	39.2	93.1	36.8	80.7	> 100	> 100	33.8	40.1	
C=C1C(=O)O[C@H]2[C@H]([C@H](C)CCCC(C)=O)O[C@H]([C@@]3(C)CCC(=O)O3)C[C@@H]12		80.5	64.8	> 100	> 100	> 100	> 100	> 100	> 100	> 100	> 100
CCOC(=O)c1cn(C)nc1N/C(C)=C\C(=O)c1ccccc1	> 100	> 100	> 100	> 100		> 100		> 100	> 100	> 100	> 100
CCOC(=O)CCC(C(=O)OCC)n1nnc2cc(Nc3c(C)[n+]([O-])c4ccc(Cl)cc4[n+]3[O-])ccc21 (stereo not drawn)	93	> 100	> 100	> 100	> 100	> 100	> 100	> 100	> 100	> 100	
CC(=O)O[C@H]1C(=O)[C@@]2(C)C(C(OC(=O)c3ccccc3)[C@]3(O)CC(OC(=O)C(O)C(NC(=O)c4ccccc4)c4ccc(C)cc4)C(C)=C1C3(C)C)[C@]1(OC(C)=O)CO[C@@H]1C[C@@H]2O (stereo partly drawn)			0.0396	11.5	> 25	> 25	7.56	0.523	0.407	0.105	
CCOC(=O)N1C(=S)C(C(=O)OC)(C(=O)OC)N=C1C	> 100	> 100		> 100	> 100	> 100	> 100	> 100	> 100	> 100	
CC1(C)N=C(N)N=C(N)N1c1ccc(OCCCOc2ccccc2)c(Cl)c1	14.8	15.4	8.39	> 23.8	30.2	> 42.8	28.9	1.06	15.1		
COc1cccc2c1[C@]1(O)C(O)CCCC21 (stereo partly drawn)		> 100	> 100	> 100	> 100	> 100	> 100	> 100	> 100	> 100	
c1ccc(CNc2ncnc3n[nH]nc23)cc1	> 100	> 100	> 100	> 100	> 100	> 100		> 100	> 100	> 100	> 100
COc1ccc(NS(=O)c2cccc(C)c2)cc1 (stereo not drawn)	> 100	> 100	> 100	> 100		> 100	> 100	> 100	> 100	> 100	> 100
O=C1OC2C=CC1C1(CCOC1=O)C2 (stereo not drawn)		> 100	> 100	> 100	> 100	> 100	> 100	> 100	> 100	> 100	
Cc1cccc(C(O)c2cccnc2)c1O (stereo not drawn)	> 100	> 100	> 100	> 100		> 100	> 100	> 100	> 100		> 100
O=C1C(=Cc2ccccc2[N+](=O)[O-])N=C(c2ccccc2)N1n1c(-c2ccccc2)nc2ccccc2c1=O	52.4	85.3	31.8	> 100		> 100	66.6	> 100	> 100	> 100	> 100
